# Measured values reported in ChEMBL document CHEMBL1201862, “PubChem BioAssay data set” (2004).
# Active and inactive are the calls of the source.
# Tests used:
# Phospholipase D2 = Phospholipase D2 (Homo sapiens, UniProt O14939); assay: cellular phospholipase D2 inhibition IC50 – cell-based, dose response (AID 602147); assay type: functional;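 note: cellular assay in HEK293 cells overexpressing GFP-tagged PLD2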
# Phospholipase D1 = Phospholipase D1 (Homo sapiens, UniProt Q13393); assay: cellular phospholipase D1 inhibition IC50 – cell-based, dose response (AID 602151); assay type: functional;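 note: cellular PLD1 assay in Calu-1 cells stimulated with PMA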
# [1] = target: Mitogen-activated protein kinase kinase kinase kinase 2 (Homo sapiens, UniProt Q12851); assay type: functional;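 note: measured as one member of a kinome-wide kinase panel, with MAP4K2 as the panel entry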
# [2] = target: Dual specificity mitogen-activated protein kinase kinase 2 (Homo sapiens, UniProt P36507); assay: Navigating the Kinome. Panel member name: MAP2K2; assay type: functional
# [3] = target: Cyclin-dependent kinase 8 (Homo sapiens, UniProt P49336); assay: Navigating the Kinome. Panel member name: CDK8; assay type: functional
# [4] = target: Serine/threonine-protein kinase pim-1 (Homo sapiens, UniProt P11309); assay type: functional
# [5] = target: Hepatocyte growth factor receptor (Homo sapiens, UniProt P08581); assay type: functional;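 note: kinase panel profiling across the kinome, with MET as the panel member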
# [6] = target: Dual specificity protein kinase CLK4 (Homo sapiens, UniProt Q9HAZ1); assay type: functional
# [7] = target: Serine/threonine-protein kinase Chk1 (Homo sapiens, UniProt O14757); assay type: functional;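 note: measured as one member of a kinome-wide kinase profiling panel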
# [8] = target: Dual specificity tyrosine-phosphorylation-regulated kinase 1A (Homo sapiens, UniProt Q13627); assay type: functional;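 note: measured against DYRK1A as one member of a broad kinome profiling panel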
# LIM domain kinase 1 = LIM domain kinase 1 (Homo sapiens, UniProt P53667); assay: Navigating the Kinome. Panel member name: LIMK1; assay type: functional
# [9] = target: Interleukin-1 receptor-associated kinase 4 (Homo sapiens, UniProt Q9NWZ3); assay type: functional
# [10] = target: Cyclin-dependent kinase 1 (Homo sapiens, UniProt P06493); assay type: functional;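 note: Kinome-wide panel profiling, with the target listed as panel member CDC2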
# [11] = target: ALK tyrosine kinase receptor (Homo sapiens, UniProt Q9UM73); assay type: functional;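 note: ALK tested as one member of a kinase panel screen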
# Wee1-like protein kinase = Wee1-like protein kinase (Homo sapiens, UniProt P30291); assay: Navigating the Kinome. Panel member name: WEE1; assay type: functional
# Aurora kinase A = Aurora kinase A (Homo sapiens, UniProt O14965); assay type: functional;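 note: value from the Navigating the Kinome kinase panel profiling, panel entry STK6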
# Aurora kinase B = Aurora kinase B (Homo sapiens, UniProt Q96GD4); assay type: functional
# [12] = target: Cyclin-dependent kinase 19 (Homo sapiens, UniProt Q9BWU1); assay: Navigating the Kinome. Panel member name: CDC2L6; assay type: functional
# [13] = Luminescence Cell-Based Dose Response HTS to Identify Inhibitors of 5'UTR Stem-Loop Driven Prion Protein mRNA Translation in H4 Neuroglioblastoma Cells. [Related pubchem assays: 1827 (Project Summary), 1813 (Primary HTS)]; assay type: functional
# [14] = alpha-synuclein stem-loop luciferase translation blockers – H4 neuroglioma cells, luminescence, confirmation (AID 1988); assay type: functional, cell-based
# [15] = HIV-1 AD8 envelope cell-cell fusion blockers – cherry-pick, dose response (AID 652062); assay type: functional, cell-based;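 note: luciferase signal from cell-cell fusion driven by HIV-1 clade B AD8 Env; potency is for inhibitors of fusion seen as a drop in luminescence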
# [16] = blockers of HIV-1 envelope-mediated cell-cell fusion – cherry-pick, dose response (AID 652057); assay type: functional, cell-based
# [17] = target: Luciferin 4-monooxygenase (Photuris pensylvanica, UniProt Q27757); assay: inhibition of Cell Titer Glo luciferase signal – biochemical, luminescence, cherry-picks, counter-screen for HSF-1 reporter inhibitor project, dose response (AID 588847)
# [18] = off-target signal loss in HeLa-CEM21 co-culture – HeLa F-luc CTL cells, cherry-picked, counter-screen for HIV-1 Env fusion inhibitor project, dose response (AID 652040); assay type: functional, cell-based;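 note: potency for signal decrease marking cytotoxic or nonspecific inhibition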
# [19] = luciferase reporter signal suppression in cells – H4 neuroglioma cells, luminescence, dose response (AID 1990); assay type: functional, cell-based
# HEK293 = assay: EBV LMP1 TES2 canonical NF-kB signalling blockers – cell-based, HEK293, luciferase, cherry-pick, dose response (AID 588343); assay type: functional; settings: Homo sapiens
# [20] = target: Mitogen-activated protein kinase 13 (Homo sapiens, UniProt O15264); assay type: functional
# Luciferin 4-monooxygenase, sequence (Q27757 whole entry, the tested form may be a part): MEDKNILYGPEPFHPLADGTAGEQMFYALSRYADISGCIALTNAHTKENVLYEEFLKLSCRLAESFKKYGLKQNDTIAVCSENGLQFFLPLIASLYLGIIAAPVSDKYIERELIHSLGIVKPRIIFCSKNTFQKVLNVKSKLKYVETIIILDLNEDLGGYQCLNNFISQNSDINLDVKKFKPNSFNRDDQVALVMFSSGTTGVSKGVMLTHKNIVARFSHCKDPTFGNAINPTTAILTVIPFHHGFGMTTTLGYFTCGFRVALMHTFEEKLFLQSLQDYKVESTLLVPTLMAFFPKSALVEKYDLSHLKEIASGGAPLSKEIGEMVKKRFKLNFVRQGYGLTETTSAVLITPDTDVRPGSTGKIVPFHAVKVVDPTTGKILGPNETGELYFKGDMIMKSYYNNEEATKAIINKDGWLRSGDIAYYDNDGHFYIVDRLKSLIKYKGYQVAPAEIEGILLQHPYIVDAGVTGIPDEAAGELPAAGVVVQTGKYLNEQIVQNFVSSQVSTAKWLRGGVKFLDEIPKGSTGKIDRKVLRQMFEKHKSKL
# Serine/threonine-protein kinase Chk1, sequence (O14757 whole entry): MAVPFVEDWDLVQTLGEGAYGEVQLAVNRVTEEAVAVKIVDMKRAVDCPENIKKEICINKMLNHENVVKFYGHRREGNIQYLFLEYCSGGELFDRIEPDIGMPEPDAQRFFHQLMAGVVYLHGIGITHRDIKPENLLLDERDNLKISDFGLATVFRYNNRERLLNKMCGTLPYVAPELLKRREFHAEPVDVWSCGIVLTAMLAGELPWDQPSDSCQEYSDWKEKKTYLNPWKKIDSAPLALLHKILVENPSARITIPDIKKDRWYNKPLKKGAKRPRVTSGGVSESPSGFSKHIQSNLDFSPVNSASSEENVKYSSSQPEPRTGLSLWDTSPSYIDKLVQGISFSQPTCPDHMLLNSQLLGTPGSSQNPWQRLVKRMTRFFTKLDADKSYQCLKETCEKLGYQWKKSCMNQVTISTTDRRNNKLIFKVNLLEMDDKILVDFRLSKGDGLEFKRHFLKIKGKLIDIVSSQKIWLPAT
# Serine/threonine-protein kinase pim-1, sequence (P11309 whole entry): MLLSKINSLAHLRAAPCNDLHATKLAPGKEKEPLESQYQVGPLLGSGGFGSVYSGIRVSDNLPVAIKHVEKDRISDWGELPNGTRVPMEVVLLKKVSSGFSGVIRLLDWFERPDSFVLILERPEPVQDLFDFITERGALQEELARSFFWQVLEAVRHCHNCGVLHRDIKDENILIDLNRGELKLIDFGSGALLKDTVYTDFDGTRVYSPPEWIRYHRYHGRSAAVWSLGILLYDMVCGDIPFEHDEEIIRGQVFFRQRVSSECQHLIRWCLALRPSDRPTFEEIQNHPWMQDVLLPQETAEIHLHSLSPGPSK
# Wee1-like protein kinase, sequence (P30291 whole entry): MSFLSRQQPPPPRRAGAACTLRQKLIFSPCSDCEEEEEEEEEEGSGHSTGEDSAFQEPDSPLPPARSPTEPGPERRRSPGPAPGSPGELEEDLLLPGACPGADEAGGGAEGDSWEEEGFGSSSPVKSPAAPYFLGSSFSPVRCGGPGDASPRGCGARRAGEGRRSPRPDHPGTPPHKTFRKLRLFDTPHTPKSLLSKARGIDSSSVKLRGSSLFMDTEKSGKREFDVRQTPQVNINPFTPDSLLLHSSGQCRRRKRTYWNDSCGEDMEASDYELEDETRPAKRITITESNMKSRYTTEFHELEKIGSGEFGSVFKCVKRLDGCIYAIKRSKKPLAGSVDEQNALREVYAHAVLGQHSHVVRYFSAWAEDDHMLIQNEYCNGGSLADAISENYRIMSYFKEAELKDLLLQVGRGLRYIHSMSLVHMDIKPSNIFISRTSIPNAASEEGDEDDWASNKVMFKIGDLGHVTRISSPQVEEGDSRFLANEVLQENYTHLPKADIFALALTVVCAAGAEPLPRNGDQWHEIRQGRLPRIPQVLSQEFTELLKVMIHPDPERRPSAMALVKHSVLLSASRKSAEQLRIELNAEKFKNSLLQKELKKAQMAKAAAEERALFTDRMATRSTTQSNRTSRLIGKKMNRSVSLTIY
# Cyclin-dependent kinase 19, sequence (Q9BWU1 whole entry): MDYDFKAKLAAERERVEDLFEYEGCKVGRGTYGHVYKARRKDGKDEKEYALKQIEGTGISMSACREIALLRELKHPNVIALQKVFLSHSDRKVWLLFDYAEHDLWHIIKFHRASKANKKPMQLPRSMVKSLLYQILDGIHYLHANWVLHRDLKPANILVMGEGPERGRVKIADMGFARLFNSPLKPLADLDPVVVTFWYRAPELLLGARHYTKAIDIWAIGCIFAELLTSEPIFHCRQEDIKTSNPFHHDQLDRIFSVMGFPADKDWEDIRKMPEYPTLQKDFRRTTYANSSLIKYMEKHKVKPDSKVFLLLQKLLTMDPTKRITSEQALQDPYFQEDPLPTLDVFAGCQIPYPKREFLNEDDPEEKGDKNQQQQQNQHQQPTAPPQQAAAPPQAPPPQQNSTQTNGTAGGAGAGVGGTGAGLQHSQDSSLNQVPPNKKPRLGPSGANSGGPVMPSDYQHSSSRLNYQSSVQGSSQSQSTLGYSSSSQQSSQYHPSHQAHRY
# LIM domain kinase 1, sequence (P53667 whole entry, the tested form may be a part): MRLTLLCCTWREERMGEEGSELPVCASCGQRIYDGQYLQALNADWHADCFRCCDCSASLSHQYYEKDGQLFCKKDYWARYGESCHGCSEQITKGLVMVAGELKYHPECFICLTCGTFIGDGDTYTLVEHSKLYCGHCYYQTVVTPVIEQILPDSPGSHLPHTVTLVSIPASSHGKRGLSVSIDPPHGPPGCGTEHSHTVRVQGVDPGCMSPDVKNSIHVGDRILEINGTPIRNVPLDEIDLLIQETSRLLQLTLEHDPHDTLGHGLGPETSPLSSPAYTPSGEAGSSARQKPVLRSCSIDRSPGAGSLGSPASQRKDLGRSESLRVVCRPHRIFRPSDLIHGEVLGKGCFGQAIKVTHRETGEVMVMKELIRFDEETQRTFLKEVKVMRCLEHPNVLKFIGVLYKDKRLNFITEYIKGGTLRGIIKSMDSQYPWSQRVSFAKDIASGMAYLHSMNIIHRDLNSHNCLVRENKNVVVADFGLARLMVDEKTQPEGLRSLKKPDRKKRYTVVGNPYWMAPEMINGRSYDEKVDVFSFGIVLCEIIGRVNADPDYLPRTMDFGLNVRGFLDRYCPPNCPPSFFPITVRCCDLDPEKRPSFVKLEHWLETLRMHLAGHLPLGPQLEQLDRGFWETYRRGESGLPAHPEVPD
# Cyclin-dependent kinase 1, sequence (P06493 whole entry): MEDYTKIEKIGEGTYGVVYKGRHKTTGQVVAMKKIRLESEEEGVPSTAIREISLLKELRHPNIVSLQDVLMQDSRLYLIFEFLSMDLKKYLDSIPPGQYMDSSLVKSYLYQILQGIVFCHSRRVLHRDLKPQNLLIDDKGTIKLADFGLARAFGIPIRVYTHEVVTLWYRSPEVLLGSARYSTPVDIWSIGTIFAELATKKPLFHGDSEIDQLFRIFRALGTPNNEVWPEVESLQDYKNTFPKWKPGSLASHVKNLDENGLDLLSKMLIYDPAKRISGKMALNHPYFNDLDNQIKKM
# Dual specificity mitogen-activated protein kinase kinase 2, sequence (P36507 whole entry): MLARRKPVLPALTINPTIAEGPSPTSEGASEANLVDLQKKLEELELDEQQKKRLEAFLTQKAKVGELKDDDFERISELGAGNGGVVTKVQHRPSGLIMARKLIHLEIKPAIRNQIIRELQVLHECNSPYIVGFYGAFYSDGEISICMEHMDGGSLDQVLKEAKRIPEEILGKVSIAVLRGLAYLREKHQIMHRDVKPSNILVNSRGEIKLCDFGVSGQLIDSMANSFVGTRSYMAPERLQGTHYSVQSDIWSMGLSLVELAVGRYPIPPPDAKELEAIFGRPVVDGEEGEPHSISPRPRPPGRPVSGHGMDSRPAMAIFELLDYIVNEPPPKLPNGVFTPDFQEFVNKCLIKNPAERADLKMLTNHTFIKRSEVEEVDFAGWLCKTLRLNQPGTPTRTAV
# Dual specificity protein kinase CLK4, sequence (Q9HAZ1 whole entry): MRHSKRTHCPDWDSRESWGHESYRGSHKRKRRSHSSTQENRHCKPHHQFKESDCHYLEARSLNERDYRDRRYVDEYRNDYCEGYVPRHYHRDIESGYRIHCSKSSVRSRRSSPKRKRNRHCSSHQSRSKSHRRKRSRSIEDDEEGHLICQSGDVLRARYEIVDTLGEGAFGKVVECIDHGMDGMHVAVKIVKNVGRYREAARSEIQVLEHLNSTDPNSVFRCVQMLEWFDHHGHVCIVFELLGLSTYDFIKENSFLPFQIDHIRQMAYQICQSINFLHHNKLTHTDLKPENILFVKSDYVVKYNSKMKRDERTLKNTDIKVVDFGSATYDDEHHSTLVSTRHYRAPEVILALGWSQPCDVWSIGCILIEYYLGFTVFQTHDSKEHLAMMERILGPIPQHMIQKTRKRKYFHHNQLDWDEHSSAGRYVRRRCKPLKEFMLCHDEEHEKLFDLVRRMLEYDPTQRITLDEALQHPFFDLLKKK
# Cyclin-dependent kinase 8, sequence (P49336 whole entry): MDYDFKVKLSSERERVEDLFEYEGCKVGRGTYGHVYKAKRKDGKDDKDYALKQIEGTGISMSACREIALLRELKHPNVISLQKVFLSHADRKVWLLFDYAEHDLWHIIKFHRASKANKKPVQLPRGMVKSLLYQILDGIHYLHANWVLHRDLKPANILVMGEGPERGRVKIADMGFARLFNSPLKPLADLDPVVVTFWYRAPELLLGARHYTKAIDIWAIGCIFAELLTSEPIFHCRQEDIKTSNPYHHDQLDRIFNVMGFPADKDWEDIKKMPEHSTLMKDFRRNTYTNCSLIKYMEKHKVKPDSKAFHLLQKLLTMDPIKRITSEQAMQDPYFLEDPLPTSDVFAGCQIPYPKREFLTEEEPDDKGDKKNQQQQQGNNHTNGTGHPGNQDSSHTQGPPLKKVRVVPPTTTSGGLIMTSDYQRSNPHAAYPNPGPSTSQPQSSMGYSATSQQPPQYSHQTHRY
compound,measurement,setting,value
CC(C)[C@@H](CN1CCC2(CC1)C(=O)NCN2c1ccccc1)NC(=O)c1cc2cc(F)ccc2[nH]1,IC50,Phospholipase D2,480 nM (active)
same,IC50,Phospholipase D1,26 nM (active)
Oc1ccc(Cl)cc1C1=NNC(c2ccc3c(c2)OCCO3)C1 (configuration not stated),Ki,[1],2.51 µM (active)
same,Ki,[2],3.16 µM (active)
same,Ki,[3],3.16 µM (active)
same,Ki,[4],2 µM (active)
same,Ki,[5],1.26 µM (active)
O=C(O)c1cnc2sccn2c1=O,Ki,[6],39.8 µM (active)
same,Ki,[7],39.8 µM (active)
same,Ki,[8],63.1 µM (active)
same,Ki,LIM domain kinase 1,50.1 µM (active)
CS(=O)(=O)Nc1ccccc1-c1ccc2c(c1)Nc1ccccc1NC2=O,Ki,[9],3.98 µM (active)
same,Ki,[10],7.94 µM (active)
CCN1CCN(c2ccc(Nc3nccc(Nc4ccc5[nH]ncc5c4)n3)cc2)CC1,Ki,[11],1 µM (active)
same,Ki,Wee1-like protein kinase,158 nM (active)
Cc1ccc(F)c(NC(=O)Nc2ccc(-c3cc(CO)c(F)c4[nH]nc(N)c34)cc2)c1,Ki,Aurora kinase A,126 nM (active)
same,Ki,Aurora kinase B,10 nM (active)
same,Ki,[12],2 µM (active)
CCOc1ccc(OCc2cccc(C(=O)N/N=C/c3cccnc3)c2)cc1,EC50,[13],12.8 µM (active)
same,EC50,[14],9.36 µM (active)
same,AC50,[15],3.31 µM (active)
same,AC50,[16],2.3 µM (active)
same,AC50,[17],31.9 µM (active)
same,AC50,[18],1.46 µM (active)
same,EC50,[19],9.06 µM (active)
same,AC50,HEK293,1.29 µM (active)
Cc1cccc(NC(=O)Nc2ccc(-c3ccc4nccnc4c3N)cc2)c1,Ki,[20],> 7.94 µM (inactive)
